Experiments:
mouse V79 cells = conditions: cited from earlier work
[1] = Single-dose 10-minute intravenous infusion toxicokinetics of OT-551; type: in vivo, Sprague-Dawley rats
Procedure: Blood for toxicokinetic evaluations was collected at pre-determined time points during and after the infusion. Plasma samples were analyzed for OT-551 and TP-H using validated LC/MS/MS assays. Descriptive toxicokinetic parameters were determined by standard model independent methods (Gilbaldi and Perrier, 1982) based on the plasma concentration-time data. […] The plasma concentrations were rounded to the nearest tenth of a ng/mL before the calculations. […] Nominal time points were used for all calculations. Since there was no apparent gender difference in the plasma concentrations of OT-551 and TP-H, the data for male and female rats at each sampling time point were pooled.

[2] = In vitro stability of OT-551 in human plasma; type: in vitro ADME
Procedure: The active metabolite of OT-551 (Cyclopropanecarboxylic acid 1-hydroxy-2,2,6,6-tetramethyl-piperidin-4-yl ester) is TP-H. The objective of this analysis was to determine the in vitro half-life of OT-551 in rat, rabbit, dog, and human plasma under standardized incubation conditions.
OT-551 was incubated with pooled rat, rabbit, dog, and human plasma for various times under standardized incubation conditions. Pre-labeled tubes containing pooled plasma from rats, rabbits, dogs, and humans were pre-incubated in a shaking 37° C. water bath. A OT-551 solution was added to the tubes at a final concentration of 1000 ng/mL. Time zero samples (n=5) were immediately removed and transferred into tubes containing a stabilizer solution (DTPA, acetylcysteine and ascorbic acid), the LC/MS/MS assay internal standard and methanol. […] The tubes were vortexed, placed on ice, followed by centrifugation. One hundred-μL aliquots of the supernatant were transferred into HPLC sample vials. Additional tubes (n=5 at each time point) were incubated for 5, 10, 20, 30, 60, 120, and 240 minutes at 37° C. and thereafter processed. The amount of OT-551 and TP-H in each incubated sample was quantified using validated LC/MS/MS assays.

Angiogenesis in CAM = assay: Neovascularization on the CAM (Inhibition of Angiogenesis in CAM); type: in vivo, chicken; conditions: 30 ug
Procedure: In vivo neovascularization was examined by the method previously described by Auerbach et al. (J. Dev. Biol. 41:391-394 (1974)). Ten-day old chicken embryos were purchased from Spafas, Inc. (Preston, Conn.) and were incubated at 37° C. with 55% relative humidity. In the dark, with the aid of a candling lamp, a small hole was punctured in the shell concealing the air sac with a hypodermic needle. A second hole was punctured in the shell on the broadside of the egg directly over an […] portion of the embryonic membrane, as observed during candling. An artificial air sac was created beneath the second hole by applying gentle vacuum to the first hole using a small rubber squeeze bulb. The vacuum caused the chorioallantoic membrane (CAM) to separate from the shell. A window, approximately 1.0 cm^2, was cut in the shell over the dropped CAM with the use of a small crafts grinding wheel (Dremel, Division of Emerson Electric Company Racine, Wis.). The window allowed direct access to the underlying CAM. A pro-angiogenic agent was added to induce new blood vessel branches on the CAM of 10-day old embryos. […] Louis, Mo.) in a solution (95% ethanol and water). The disks were subsequently air dried under sterile conditions. The disks were then suspended in PBS (Phosphate Buffered Saline) and placed on growing CAMs. […] For inducing angiogenesis, sterile filter disks were saturated with bFGF (1 μg/ml) (Life Technologies, Gaithersburg, Md.) or other pro-angiogenesis factors and control disks were saturated with PBS without Calcium and Magnesium. Control disks were saturated with PBS without Calcium and Magnesium. Using sterile forceps one filter/CAM was placed from the window. The window was sealed with Highland brand transparent tape. After 24-48 hr, 10-25 ul of test agent was injected intravenously or added topically into the CAM membrane. Eight-Ten eggs/treatment group were used. CAM tissue directly beneath filter disk was harvested from embryos treated 48 hours prior with compound or control. Tissues were washed three times with PBS. Sections were placed in a 35-mm petri dish (Nalge Nunc, Rochester, N.Y.) and examined under a SV6 stereomicroscope (Karl Zeiss, Thornwood, N.Y.) at 50× magnification. […] Digital images of CAM sections from Petri dish were collected using a 3-CCD color video camera system (Toshiba America, New York, N.Y.). These images were analyzed using Image-Pro Plus software (Media Cybernetics, Silver Spring, Md.). The number of branch points in blood vessels within the circular region superimposed to the area of a filter disk was counted for each section. […] Tissues were washed three times with PBS. Sections were placed in a 35-mm Petri dish (Nalge Nunc; Rochester, N.Y.) and were examined under a SV6 stereomicroscope (Karl Zeiss; Thornwood, N.Y.) at 50× magnification. Digital images of CAM sections adjacent to filters were collected using a 3-CCD color video camera system (Toshiba America; New York, N.Y.) and analyzed with the Image-Pro Plus software (Media Cybernetics; Silver Spring, Md.). The number of vessel branch points contained in a circular region equal to the area of a filter disk was counted for each section. Percent inhibition data are expressed as the quotient of the experimental value minus the negative control value divided by the difference between the positive control value and the negative control value. One image was counted in each CAM preparation, and findings from eight CAM preparations were analyzed for each treatment condition. In addition, each experiment was performed three times. The resulting angiogenesis index is the mean ±SEM (Standard Error of Measurement) of new branch points in each set of treatment. Statistical analysis of blood vessel branching patterns are performed by 1-way analysis of variance (ANOVA) comparing experimental with corresponding control groups.

[3] = Sprague-Dawley rats, 10-minute iv infusion of OT-551 10 mg/kg
[4] = Sprague-Dawley rats, 10-minute iv infusion of OT-551 30 mg/kg
[5] = Sprague-Dawley rats, 10-minute iv infusion of OT-551 100 mg/kg
[6] = Sprague-Dawley rats, 10-minute iv infusion of OT-551 200 mg/kg

Compound: CC1(C)CC(O)CC(C)(C)N1O [TEMPOL-H]
- radioprotection of mouse V79 cells (mouse V79 cells): did not provide any radioprotection
- peak plasma concentration of TP-H at the end of the OT-551 infusion ([1]; 10 mg/kg OT-551): 2481.7 ng/mL
- plasma levels of TP-H at 4 hr post infusion ([1]; 10 mg/kg OT-551): still quantifiable
- terminal elimination half-life of TP-H ([1]; 10 mg/kg OT-551): 24 min
- peak plasma concentration of TP-H at the end of the OT-551 infusion ([1]; 30 mg/kg OT-551): 8337.7 ng/mL
- peak plasma concentration of TP-H at the end of the OT-551 infusion ([1]; 100 mg/kg OT-551): 29020.8 ng/mL
- peak plasma concentration of TP-H at the end of the OT-551 infusion ([1]; 200 mg/kg OT-551): 60802.1 ng/mL
- levels of TP-H four hours after terminating the infusion relative to concentrations immediately after terminating the infusion ([1]; 30, 100 and 200 mg/kg OT-551): less than 1%
- Mean ± SD Plasma Concentrations of TP-H ([1]; OT-551 10 mg/kg iv infusion, 1.167 hr): 204.7 ± 85.6 ng/mL
- Mean ± SD Plasma Concentrations of TP-H ([1]; OT-551 10 mg/kg iv infusion, 2.167 hr): 25.2 ± 24.0 ng/mL
- Mean ± SD Plasma Concentrations of TP-H ([1]; OT-551 10 mg/kg iv infusion, 4.167 hr): 4.2 ± 10.3 ng/mL
- Mean ± SD Plasma Concentrations of TP-H ([1]; OT-551 30 mg/kg iv infusion, 4.167 hr, n = 5): 53.8 ± 29.7 ng/mL
- Mean ± SD Plasma Concentrations of TP-H ([1]; OT-551 100 mg/kg iv infusion, 4.167 hr): 160.0 ± 97.5 ng/mL
- Mean ± SD Plasma Concentrations of TP-H ([1]; OT-551 200 mg/kg iv infusion, 4.167 hr): 524.5 ± 237.0 ng/mL
- AUC(0-4.167 hr) of TP-H [1, 3]: 1694.8 ng·h/mL
- Cmax of TP-H [1, 3]: 2481.7 ng/mL
- T½ of TP-H ([1]; Sprague-Dawley rats, 10-minute iv infusion of OT-551 10 mg/kg, elimination half-life): 24 min
- AUC of TP-H ([1]; Sprague-Dawley rats, 10-minute iv infusion of OT-551 10 mg/kg, to time infinity): 1697.5 ng·h/mL
- Cmax of TP-H [1, 4]: 8337.7 ng/mL
- Cmax of TP-H [1, 5]: 29020.8 ng/mL
- Cmax of TP-H [1, 6]: 60802.2 ng/mL
- Mean ± SD Plasma Concentrations of TP-H ([1]; Sprague-Dawley rats, single 10-minute iv infusion of OT-551 10 mg/kg, 0.167 hr from start of infusion): 2481.7 ± 325.8 ng/mL
- Mean ± SD Plasma Concentrations of TP-H ([1]; Sprague-Dawley rats, single 10-minute iv infusion of OT-551 30 mg/kg, 0.167 hr, n = 5): 8337.7 ± 2099.5 ng/mL
- Mean ± SD Plasma Concentrations of TP-H ([1]; Sprague-Dawley rats, single 10-minute iv infusion of OT-551 100 mg/kg, 0.167 hr): 29020.8 ± 11713.7 ng/mL
- Mean ± SD Plasma Concentrations of TP-H ([1]; Sprague-Dawley rats, single 10-minute iv infusion of OT-551 200 mg/kg, 0.167 hr): 60802.2 ± 8922.5 ng/mL
- Tmax of TP-H ([1]; rat, in vivo, iv): 10 min
- Concentrations (ng/mL) of TP-H in Human Plasma ([2]; OT-551 incubation time 0 min): 48.76 ± 2.84 ng/mL
- Concentrations (ng/mL) of TP-H in Human Plasma ([2]; OT-551 incubation time 5 min): 186.71 ± 4.58 ng/mL
- Concentrations (ng/mL) of TP-H in Human Plasma ([2]; OT-551 incubation time 10 min): 241.99 ± 8.05 ng/mL
- Concentrations (ng/mL) of TP-H in Human Plasma ([2]; OT-551 incubation time 20 min): 310.10 ± 8.54 ng/mL
- Concentrations (ng/mL) of TP-H in Human Plasma ([2]; OT-551 incubation time 30 min): 365.53 ± 14.44 ng/mL
- Concentrations (ng/mL) of TP-H in Human Plasma ([2]; OT-551 incubation time 60 min): 449.85 ± 9.73 ng/mL
- Concentrations (ng/mL) of TP-H in Human Plasma ([2]; OT-551 incubation time 120 min): 519.12 ± 19.52 ng/mL
- Concentrations (ng/mL) of TP-H in Human Plasma ([2]; OT-551 incubation time 240 min): 501.39 ± 11.33 ng/mL
- Inhibition of Angiogenesis in CAM, % Inhibition (Angiogenesis in CAM): 43 ± 10%

Compound: CC1(C)CC(OC(=O)C2CC2)CC(C)(C)N1O.Cl [OT-551, 1-hydroxy-4-cyclopropanecarbonyloxy-2,2,6,6-tetramethylpiperidine hydrochloride]
- peak plasma concentration of OT-551 at the end of the infusion ([1]; 10 mg/kg OT-551, 10-minute i.v. infusion): 980.5 ng/mL
- plasma level of OT-551 one hour after termination of the infusion ([1]; 10 mg/kg, assay limit <50 ng/mL): not quantifiable
- peak plasma concentration of OT-551 at the end of the infusion ([1]; 30 mg/kg OT-551, 10-minute i.v. infusion): 3487.1 ng/mL
- peak plasma concentration of OT-551 at the end of the infusion ([1]; 100 mg/kg OT-551, 10-minute i.v. infusion): 29020.0 ng/mL
- peak plasma concentration of OT-551 at the end of the infusion ([1]; 200 mg/kg OT-551, 10-minute i.v. infusion): 89740.8 ng/mL
- plasma levels of OT-551 four hours after termination of the infusion ([1]; 30 to 200 mg/kg, assay limit <50 ng/mL): not quantifiable
- Cmax of OT-551 [1, 3]: 980.5 ng/mL
- Cmax of OT-551 [1, 4]: 3487.1 ng/mL
- Cmax of OT-551 [1, 5]: 29020.0 ng/mL
- Cmax of OT-551 [1, 6]: 89740.8 ng/mL
- clearance of OT-551 in rats ([1]; rat, in vivo): very rapid
- Concentrations (ng/mL) of OT-551 in Human Plasma ([2]; incubation time 0 min): 775.47 ± 22.50 ng/mL
- Concentrations (ng/mL) of OT-551 in Human Plasma ([2]; incubation time 5 min): 593.43 ± 7.55 ng/mL
- Concentrations (ng/mL) of OT-551 in Human Plasma ([2]; incubation time 10 min): 503.18 ± 20.90 ng/mL
- Concentrations (ng/mL) of OT-551 in Human Plasma ([2]; incubation time 20 min): 394.69 ± 6.72 ng/mL
- Concentrations (ng/mL) of OT-551 in Human Plasma ([2]; incubation time 30 min): 316.37 ± 7.67 ng/mL
- Concentrations (ng/mL) of OT-551 in Human Plasma ([2]; incubation time 60 min): 162.41 ± 9.77 ng/mL
- Concentrations (ng/mL) of OT-551 in Human Plasma ([2]; incubation time 120 min): 32.22 ± 2.63 ng/mL
- Concentrations (ng/mL) of OT-551 in Human Plasma ([2]; incubation time 240 min): 0.00 ± 0.00 ng/mL
- Inhibition of Angiogenesis in CAM, % Inhibition (Angiogenesis in CAM; listed as OT-551 HCl, hydrochloride): 74 ± 4%
- inhibition in vivo at 0.03 mg (Angiogenesis in CAM; Gallus gallus): 75.2 ± 9.7%

Reference: patent publication US20080200405A1, “Drug Resistance Reversal In Neoplastic Disease” (priority 2007, published 2008)
